The text below walks through data of US9815847B2 (Icahn School of Medicine at Mount Sinai, priority 2013, dated 2017).

The structures appear in SMILES notation.

Test [1] deals with K562. Nature of the test: Cytotoxicity on K562 cancer cell line. The class given is cell-based. The note with it: Homo sapiens; K562 chronic myelogenous leukemia; 96 h; 0.01-100 μM. The method, then:
(§1) The effect of the compounds described herein on tumor cells was determined by the assay described by Latham et al., Oncogene 12:827-837 (1996). Tumor cells K562 (chronic myelogenous leukemia; leukemia cell line +ve for Bcr-Abl) or DU145 (prostate cancer) were plated in 12-well dishes at a cell density of 2.5×10^4 cells per well. The plated cells were treated 24 h. later with a DMSO solution of a compound as described herein at multiple concentrations ranging from 0.01 μM to 100 μM. The plates were examined 96 h. later under an inverted microscope, Olympus CK-2 using a 10× objective, and compound activity was noted by physical observation. When necessary, the total number of viable cells was determined by trypsinizing the wells and counting the number of viable cells, as determined by trypan blue exclusion, using a hemacytometer.

For test [2], the system named is DU145. Briefly: Cytotoxicity on DU145 cancer cell line. The class given is cell-based. The following applies: Homo sapiens, DU-145; DU145 prostate cancer; 96 h; 0.01-100 μM. The procedure: as §1

For `CNc1nc(Nc2ccc(N3CCOCC3)cc2)ncc1/C=C/S(=O)(=O)c1ccc(F)cc1F` [Compound 15e, (E)-5-{2-[(2,4-Difluorophenyl)sulfonyl]vinyl}-N^4-methyl-N^2-(4-morpholinophenyl)pyrimidine-2,4-diamine], the IC50 in test [1] and in test [2] was 50 to 100 µM in each case.
For the molecule `CNc1nc(Nc2ccc(OC)cc2)ncc1/C=C/S(=O)(=O)c1ccc(F)cc1F` [Compound 15f, (E)-5-{2-[(2,4-Difluorophenyl)sulfonyl]vinyl}-N^2-(4-methoxyphenyl)-N^4-methylpyrimidine-2,4-diamine], the IC50 in test [1] and in test [2] was 25 to 50 µM in each case.
For the molecule `CNc1nc(Nc2cc(OC)c(OC)c(OC)c2)ncc1/C=C/S(=O)(=O)c1ccc(F)cc1F` [Compound 15g, (E)-5-{2-[(2,4-Difluorophenyl)sulfonyl]vinyl}-N^4-methyl-N^2-(3,4,5-trimethoxyphenyl)pyrimidine-2,4-diamine], the IC50 in test [1] is 50 to 100 µM; in test [2], 1 to 25 µM.
As for `CNc1nc(Nc2nc3ccccc3[nH]2)ncc1/C=C/S(=O)(=O)c1ccc(F)cc1F` [Compound 15h, (E)-N^2-(1H-Benzo[d]imidazol-2-yl)-5-{2-[(2,4-difluorophenyl)sulfonyl]vinyl}-N^4-methylpyrimidine-2,4-diamine], the IC50 in test [1] and in test [2] was 1 to 25 µM throughout.
For `CNc1nc(Nc2ccc3[nH]ncc3c2)ncc1/C=C/S(=O)(=O)c1ccc(F)cc1F` [Compound 15i, (E)-5-{2-[(2,4-Difluorophenyl)sulfonyl]vinyl}-N^2-(1H-indazol-5-yl)-N-methylpyrimidine-2,4-diamine], the IC50 in test [1] and in test [2] was 1 to 25 µM in each case.
Regarding `COc1ccc(S(=O)(=O)/C=C/c2cnc(Nc3ccc(N4CCN(C)CC4)cc3)nc2NC2CCCC2)cc1` [Compound 15j, (E)-N^4-Cyclopentyl-5-{2-[(4-methoxyphenyl)sulfonyl]vinyl}-N^2-[4-(4-methylpiperazin-1-yl)phenyl]pyrimidine-2,4-diamine], the IC50 in test [1] and in test [2] was 1 to 25 µM each time.
For the molecule `COc1ccc(S(=O)(=O)/C=C/c2cnc(Nc3ccc4[nH]ccc4c3)nc2NC2CCCC2)cc1` [Compound 15k, (E)-N^4-Cyclopentyl-N^2-(1H-indol-5-yl)-5-{2-[(4-methoxyphenyl)sulfonyl]vinyl}pyrimidine-2,4-diamine], the IC50 in test [1] and in test [2] was 1 to 25 µM throughout.
`CNc1nc(Nc2ccc(N3CCN(C)CC3)cn2)ncc1/C=C/S(=O)(=O)c1ccc(F)cc1F` [Compound 15l, (E)-5-{2-[(2,4-Difluorophenyl)sulfonyl]vinyl}-N^4-methyl-N^2-[5-(4-methylpiperazin-1-yl)pyridin-2-yl]pyrimidine-2,4-diamine]: the IC50 in test [1] and in test [2] was 1 to 25 µM in each case.
For the molecule `COc1ccc(Nc2ncc(/C=C/S(=O)(=O)c3ccc(OC)cc3)c(NC3CCCC3)n2)cc1` [Compound 15m, (E)-N^4-Cyclopentyl-N^2-(4-methoxyphenyl)-5-{2-[(4-methoxyphenyl)sulfonyl]vinyl}pyrimidine-2,4-diamine], the IC50 in test [1] and in test [2] was 1 to 25 µM each time.
Take `CNc1nc(Nc2ccc3[nH]cnc3c2)ncc1/C=C/S(=O)(=O)c1ccc(F)cc1F` [Compound 15n, (E)-N^2-(1H-Benzo[d]imidazol-5-yl)-5-{2-[(2,4-difluorophenyl)sulfonyl]vinyl}-N^4-methylpyrimidine-2,4-diamine]: the IC50 in test [1] and in test [2] was 1 to 25 µM each time.
Turning to `COc1ccc(S(=O)(=O)/C=C/c2cnc(N3CCOCC3)nc2NC2CCCC2)cc1` [Compound 15o, (E)-N-Cyclopentyl-5-{2-[(4-methoxyphenyl)sulfonyl]vinyl}-2-morpholinopyrimidin-4-amine], the IC50 in test [1] and in test [2] was 1 to 25 µM throughout.
On to `O=S(=O)(/C=C/c1cnc(N2CCOCC2)nc1NC1CCCC1)c1ccc(F)cc1N1CCOCC1` [Compound 15p, (E)-N-Cyclopentyl-5-{2-[(4-fluoro-2-morpholinophenyl)sulfonyl]vinyl}-2-morpholinopyrimidin-4-amine], for which the IC50 was 50 to 100 µM in test [1] and 1 to 25 µM in test [2].
The corresponding values for `COc1ccc(S(=O)(=O)/C=C/c2cnc(Nc3ccc(N4CCN(C)CC4)cc3)nc2Nc2ccn(C)n2)cc1` [Compound 15q, (E)-5-{2-[(4-Methoxyphenyl)sulfonyl]vinyl}-N^4-(1-methyl-1H-pyrazol-3-yl)-N^2-[4-(4-methylpiperazin-1-yl)phenyl]pyrimidine-2,4-diamine] are less than 1 µM and 1 to 25 µM.
Turning to `CN1CCN(c2ccc(Nc3ncc(/C=C/S(=O)(=O)c4ccc(F)cc4F)c(Nc4ccn(C)n4)n3)cc2)CC1` [Compound 15r, (E)-5-{2-[(2,4-Difluorophenyl)sulfonyl]vinyl}-N^4-(1-methyl-1H-pyrazol-3-yl)-N^2-[4-(4-methylpiperazin-1-yl)phenyl]pyrimidine-2,4-diamine], the IC50 in test [1] and in test [2] was 1 to 25 µM in each case.
Take `Cn1ccc(Nc2nc(Nc3ccc4[nH]ccc4c3)ncc2/C=C/S(=O)(=O)c2ccc(F)cc2F)n1` [Compound 15s, (E)-5-{2-[(2,4-Difluorophenyl)sulfonyl]vinyl}-N^2-(1H-indol-5-yl)-N^4-(1-methyl-1H-pyrazol-3-yl)pyrimidine-2,4-diamine]: the IC50 in test [1] and in test [2] was 1 to 25 µM throughout.
On to `Cn1ccc(Nc2nc(Nc3ccc(N4CCOCC4)cc3)ncc2/C=C/S(=O)(=O)c2ccc(F)cc2F)n1` [Compound 15t, (E)-5-{2-[(2,4-Difluorophenyl)sulfonyl]vinyl}-N-(1-methyl-1H-pyrazol-3-yl)-N^2-(4-morpholinophenyl)pyrimidine-2,4-diamine], for which the IC50 in test [1] and in test [2] was 1 to 25 µM each time.
For `Cn1ccc(Nc2nc(Nc3ccc4ncccc4c3)ncc2/C=C/S(=O)(=O)c2ccc(F)cc2F)n1` [Compound 15u, (E)-5-{2-[(2,4-Difluorophenyl)sulfonyl]vinyl}-N^4-(1-methyl-1H-pyrazol-3-yl)-N^2-(quinolin-6-yl)pyrimidine-2,4-diamine], the IC50 in test [1] and in test [2] was 1 to 25 µM each time.
In the case of `CCOC(=O)/C=C/c1cnc(Nc2ccc(N3CCN(C)CC3)cc2)nc1NC1CCCC1` [Compound 21, (E)-3-[4-(Cyclopentylamino)-2-{[4-(4-methylpiperazin-1-yl)phenyl]amino}pyrimidin-5-yl]acrylic acid ethyl ester], the concentration for half-maximal inhibition (IC50) in test [1] was less than 1 µM; in test [2] it was 1 to 25 µM.
